Source: patent publication US12162858B2, “Quinoline derivatives as inhibitors of AXL/MER RTK and CSF1R” (QURIENT CO., LTD., priority 2018, dated 2024)

Tests used:
[1] = tested on: CSF1R (M-NFS-60 cells); experiment: Cell Titer-Glo viability assay using M-NFS-60 cells; format: cell-based; conditions: Mus musculus, read-out: Cellular CSF1R activity by M-NFS-60 viability assay (IC50 activity range)
How it was run: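 M-NFS-60 cells grown with 62 ng/ml recombinant human M-CSF, seeded at 2×10^5 cells/well and incubated at 37 °C/5% CO2. Compounds given as 3-fold serial dilutions (10 doses); viability read by CellTiter-Glo luminescence, sigmoidal dose-response fit.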

[2] = biological target: T1, Mer (Homo sapiens, UniProt Q12866); experiment: LanthaScreen Eu kinase binding assay for Mer; conditions: read-out: Mer kinase binding activity (Kd)
T1 construct: purchased Life Technologies
T1 sequence (Q12866 21-999): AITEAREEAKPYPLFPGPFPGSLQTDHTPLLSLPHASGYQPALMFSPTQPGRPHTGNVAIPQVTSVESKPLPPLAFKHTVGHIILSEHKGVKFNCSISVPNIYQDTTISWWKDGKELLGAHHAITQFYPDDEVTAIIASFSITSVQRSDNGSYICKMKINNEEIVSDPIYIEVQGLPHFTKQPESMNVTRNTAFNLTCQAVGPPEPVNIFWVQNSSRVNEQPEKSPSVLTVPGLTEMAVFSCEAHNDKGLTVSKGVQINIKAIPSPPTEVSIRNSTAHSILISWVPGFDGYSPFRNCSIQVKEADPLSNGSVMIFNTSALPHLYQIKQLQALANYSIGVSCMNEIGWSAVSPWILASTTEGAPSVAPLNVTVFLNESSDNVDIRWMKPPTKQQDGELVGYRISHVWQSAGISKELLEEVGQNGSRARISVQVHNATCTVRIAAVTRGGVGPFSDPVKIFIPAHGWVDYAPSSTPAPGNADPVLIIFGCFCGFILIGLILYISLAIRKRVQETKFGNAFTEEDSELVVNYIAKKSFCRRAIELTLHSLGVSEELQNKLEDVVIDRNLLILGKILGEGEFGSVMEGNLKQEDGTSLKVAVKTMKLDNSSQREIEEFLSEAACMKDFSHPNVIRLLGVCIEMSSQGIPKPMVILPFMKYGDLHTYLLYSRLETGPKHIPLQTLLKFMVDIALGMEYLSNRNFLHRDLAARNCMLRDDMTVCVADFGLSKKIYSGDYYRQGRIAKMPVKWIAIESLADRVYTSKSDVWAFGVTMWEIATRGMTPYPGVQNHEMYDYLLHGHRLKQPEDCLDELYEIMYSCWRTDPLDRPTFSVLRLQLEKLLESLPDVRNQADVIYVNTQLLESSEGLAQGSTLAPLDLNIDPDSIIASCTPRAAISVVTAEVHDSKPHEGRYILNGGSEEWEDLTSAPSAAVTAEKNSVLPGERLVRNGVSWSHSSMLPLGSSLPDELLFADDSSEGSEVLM
How it was run: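 Competitive displacement of Alexa Fluor 647-labeled Tracer 236 from the kinase, with binding detected by TR-FRET with a Eu-labeled anti-GST antibody. Compounds were run as 8-step DMSO serial dilutions and incubated 1 h at room temperature. Kd was calculated relative to DMSO vehicle control wells.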

| SMILES | Kd [2] | IC50 [1] |
| --- | --- | --- |
| COc1cc2nccc(Oc3ccc(NC(=O)c4nn(C5CCNC5)cc4OCC(F)(F)F)cc3F)c2cc1OC (centres unmarked) [Compound 78] | 0.1 to 0.5 µM | 1 to 10 µM |
| COCCn1cc(OCC(F)(F)F)c(C(=O)Nc2ccc(Oc3ccnc4cc(OC)c(OC)cc34)c(C)c2)n1 [Compound 84] | < 0.1 µM | 1 to 10 µM |
| COc1cc2nccc(Oc3ccc(NC(=O)c4nn(CC(C)C)cc4OCC(F)(F)F)cc3)c2cc1OC [Compound 87] | < 0.1 µM | 1 to 10 µM |
| COc1cc2nccc(Oc3ccc(NC(=O)c4nn(CCN)cc4OCC(F)(F)F)cc3C)c2cc1OC [Compound 82] | 0.1 to 0.5 µM | 1 to 10 µM |
| COc1cc2nccc(Oc3ccc(NC(=O)c4nn(CC(C)O)cc4OCC(F)(F)F)cc3C)c2cc1OC (centres unmarked) [Compound 83] | < 0.1 µM | 1 to 10 µM |
| COc1cc2nccc(Oc3ccc(NC(=O)c4nn(CCN)cc4OCC(F)(F)F)cc3)c2cc1OC [Compound 88] | 0.1 to 0.5 µM | 1 to 10 µM |
| COc1cc2nccc(Oc3ccc(NC(=O)c4nn(C5CC5)cc4OCC(F)(F)F)nc3)c2cc1OC [Compound 5] | < 0.1 µM | < 1 µM |
| COc1cc2nccc(Oc3ccc(NC(=O)c4nn(C5CCN(C)C5)cc4OCC(F)(F)F)nc3)c2cc1OC (centres unmarked) [Compound 91] | < 0.1 µM | < 1 µM |

The next lines start with results.

| Kd [2] | SMILES | IC50 [1] |
| --- | --- | --- |
| < 0.1 µM | COc1cc2nccc(Oc3ccc(NC(=O)c4nn(CC5COC5)cc4OCC(F)(F)F)c(F)c3)c2cc1OC [Compound 95] | 1 to 10 µM |
| < 0.1 µM | COc1cc2nccc(Oc3ccc(NC(=O)c4nn(C5CCOC5)cc4OCC(F)(F)F)cc3C)c2cc1OC (centres unmarked) [Compound 85] | 1 to 10 µM |
| < 0.1 µM | COc1cc2nccc(Oc3ccc(NC(=O)c4nn(CCC5CCCC5)cc4OCC(F)(F)F)nc3)c2cc1OC [Compound 93] | < 1 µM |
| < 0.1 µM | COc1cc2nccc(Oc3ccc(NC(=O)c4nn(CC(C)O)cc4OCC(F)(F)F)cc3)c2cc1OC (centres unmarked) [Compound 89] | 1 to 10 µM |
| < 0.1 µM | COc1cc2nccc(Oc3ccc(NC(=O)c4nn(C5CCOCC5)cc4OCC(F)(F)F)nc3)c2cc1OC [Compound 90] | < 1 µM |
| < 0.1 µM | COc1cc2nccc(Oc3ccc(NC(=O)c4nn(CCN)cc4OCC(F)(F)F)cc3F)c2cc1OC [Compound 79] | 1 to 10 µM |
| 0.1 to 0.5 µM | COc1cc2nccc(Oc3ccc(NC(=O)c4nn(C5CCNC5)cc4OCC(F)(F)F)cc3C)c2cc1OC (centres unmarked) [Compound 81] | 1 to 10 µM |
| < 0.1 µM | COc1cc2nccc(Oc3ccc(NC(=O)c4nn(C5CCN(C)C5)cc4OCC(F)(F)F)c(F)c3)c2cc1OC (centres unmarked) [Compound 94] | 1 to 10 µM |
| < 0.1 µM | COc1cc2nccc(Oc3ccc(NC(=O)c4nn(CC(C)O)cc4OCC(F)(F)F)cc3F)c2cc1OC (centres unmarked) [Compound 80] | 1 to 10 µM |
| 0.1 to 0.5 µM | COc1cc2nccc(Oc3ccc(NC(=O)c4nn(C5CCNC5)cc4OCC(F)(F)F)cc3)c2cc1OC (centres unmarked) [Compound 86] | 1 to 10 µM |
| < 0.1 µM | COc1cc2nccc(Oc3ccc(NC(=O)c4nn(C5CCOC5)cc4OCC(F)(F)F)c(F)c3)c2cc1OC (centres unmarked) [Compound 77] | 1 to 10 µM |
